Reference: PMC9311539, “Antibacterial Activity against Clinical Isolates and In Vivo Efficacy of Coralmycins” (Antibiotics, 2022)
In brackets after ≈: the same amount, converted by molar mass. Where two headings read alike, the source gives them in different places.

Columns and labels:
VRE = experiment: MIC, broth microdilution, clinical isolates: VRE; format: cell-based, vancomycin-resistant Enterococcus
Procedure: (§1) To assess the MICs for antibiotic susceptibility, Gram-positive bacteria isolated from human clinical specimens were obtained from several general hospitals in Seoul, Korea, during 2002–2018. Staphylococcus aureus Giorgio and Streptococcus pneumoniae ATCC49619 were used to test in vivo efficacies against […], in mice.
(§2) The MICs of the antimicrobial agents were determined by a twofold microdilution broth method, as described by the Clinical and Laboratory Standards Institute. Briefly, test organisms were grown on Mueller–Hinton agar (MHA, BD Difco, Sparks, MD, USA) plates, subcultured into cation-adjusted Mueller–Hinton broth (CAMHB, BD Difco, Sparks, MD, USA), and incubated for 18 h at 35 °C. For S. pneumoniae culture, 5% sheep blood (Hanil Comed, Seongnam, Korea) was added. The cultured bacteria were diluted using phosphate-buffered saline (PBS) to achieve a bacterial cell density of approximately 5 × 10^6 CFU/mL. All test organisms were loaded into 96-well plates containing serial dilutions of the antimicrobial agents to achieve a concentration of 5 × 10^4 CFU/well. The plates were incubated at 35 °C for 18–20 h and examined for bacterial growth.

[1] = test system: Vancomycin-sensitive E. faecium; experiment: MIC, broth microdilution, clinical isolates: vancomycin-sensitive E. faecium; format: cell-based, Enterococcus faecium; settings: Enterococcus faecium, 32 clinical isolates
Procedure: as §1, §2

S. pneumoniae ATCC49619 [2] = experiment: Neutropenic mouse respiratory tract infection model; format: in vivo, female ICR mice
Procedure: For the respiratory tract infection model, neutropenic mice were anesthetized and intranasally inoculated with a 50 μL suspension of S. pneumoniae ATCC49619 (4.4 × 10^8 CFU/mL). For the thigh infection model, the neutropenic mice were administered an intramuscular injection of a 100 μL suspension of S. aureus Giorgio (1 × 10^6 CFU/mL) into both thighs. For both models, four mice were included in each group. At 2 h after infection, two mice were sacrificed, and the infected thighs or lungs (n = 4) were excised to determine the initial bacterial levels. […] At 24 h after infection, the mice were sacrificed by cervical dislocation; their thighs or lungs were removed, homogenized, serially diluted with saline, and plated onto MHA to count the number of bacteria remaining. The number of viable bacterial cells (CFU) in the thighs or lungs of vehicle- and drug-treated mice was determined.

S. aureus Giorgio [3] = experiment: Time-kill assay, S. aureus Giorgio; format: cell-based, Staphylococcus aureus; settings: 2× and 4× MIC, 24 h
Procedure: (§3) Time-kill analysis was performed by the NCCLS M26-A method. The test organisms (S. aureus Giorgio, S. pneumoniae ATCC49619, MRSA CCARM 3167, and VRE 3) incubated in CAMHB for 18 h at 35 °C were diluted to 10^5 CFU/mL with fresh CAMHB, and the diluted cultures were preincubated for 2 h. For S. pneumoniae culture, 5% sheep blood (Hanil Comed, Seongnam, Korea) was added. […] Culture aliquots (0.1 mL) were removed after 0, 2, 4, 6 and 24 h of incubation, and serial 10-fold dilutions were prepared in saline as needed. The numbers of viable cells were determined on drug-free MHA plates after 20 h of incubation. A compound was considered bactericidal if the original inoculum was reduced by 3 log CFU/mL (99.9%) at each concentration or was considered bacteriostatic if the inoculum was reduced by 0–3 log CFU/mL.

S. pneumoniae = experiment: MIC, broth microdilution, clinical isolates: S. pneumoniae; format: cell-based, Streptococcus pneumoniae
Procedure: as §1, §2

[4] = test system: CNS (coagulase-negative staphylococci); experiment: MIC, broth microdilution, clinical isolates: CNS; format: cell-based; settings: 31 clinical isolates
Procedure: as §1, §2

S. aureus Giorgio [5] = experiment: MIC against S. aureus Giorgio; format: cell-based, Staphylococcus aureus; settings: Staphylococcus aureus; read-out: MIC
Procedure: as §2

[6] = cited from earlier work
MRSA CCARM 3167 [7] = experiment: Time-kill assay, MRSA CCARM 3167; format: cell-based, Staphylococcus aureus; settings: 2× and 4× MIC, 24 h
Procedure: as §3

S. pneumoniae ATCC49619 [8] = experiment: MIC against S. pneumoniae ATCC49619; format: cell-based; settings: Streptococcus pneumoniae, ATCC49619; read-out: MIC
Procedure: as §2

[9] = test system: Vancomycin-sensitive E. faecalis; experiment: MIC, broth microdilution, clinical isolates: vancomycin-sensitive E. faecalis; format: cell-based, Enterococcus faecalis; settings: Enterococcus faecalis, 32 clinical isolates
Procedure: as §1, §2

MSSA = experiment: MIC, broth microdilution, clinical isolates: MSSA; format: cell-based; settings: Staphylococcus aureus, 26 clinical isolates
Procedure: as §1, §2

MRSA CCARM 3167 [10] = experiment: MIC against MRSA CCARM 3167; format: cell-based; settings: Staphylococcus aureus; read-out: MIC
Procedure: as §2

MRSA = experiment: MIC, broth microdilution, clinical isolates: MRSA; format: cell-based, Staphylococcus aureus; settings: Staphylococcus aureus, MRSA, 42 clinical isolates
Procedure: as §1, §2

S. pneumoniae ATCC49619 [11] = experiment: Time-kill assay, S. pneumoniae ATCC49619; format: cell-based, Streptococcus pneumoniae; settings: 2× and 4× MIC, 24 h
Procedure: as §3

VRE 3 [12] = experiment: Time-kill assay, VRE 3; format: cell-based, vancomycin-resistant Enterococcus; settings: 2× and 4× MIC, 24 h
Procedure: as §3

VRE 3 [13] = experiment: MIC against VRE 3; format: cell-based, vancomycin-resistant Enterococcus; settings: Enterococcus, read-out: MIC
Procedure: as §2

Compound `CC(=O)NC[C@H]1CN(c2ccc(N3CCOCC3)c(F)c2)C(=O)O1` [Linezolid] has an MIC90 (VRE; 46 clinical isolates) of 4 µg/mL (≈ 11.9 µM), an MIC50 (VRE; Enterococcus, VRE, 46 clinical isolates, read-out: MIC50) of 2 µg/mL (≈ 5.93 µM) and an MIC90 (VRE; Enterococcus, 46 VRE isolates, read-out: MIC90) of 4 µg/mL (≈ 11.9 µM). For the same compound, the MIC50 ([1]; read-out: MIC50) was 2 µg/mL (≈ 5.93 µM), the MIC90 ([1]; read-out: MIC90) was 4 µg/mL (≈ 11.9 µM) and the “in vivo effect (bacteriostatic or bactericidal)” value (S. pneumoniae ATCC49619 [2]; 4 mg/kg bid s.c.) was “bacteriostatic”. For the same compound, the “in vivo effect (bacteriostatic or bactericidal)” value (S. pneumoniae ATCC49619 [2]; 20 mg/kg bid s.c.) was “bactericidal”, the “reduction of the starting bacterial burden compared to the 2-h control group” value (S. pneumoniae ATCC49619 [2]; second trial, 20 mg/kg bid) was 0.75 log10 CFU/lung and the time-kill activity (S. aureus Giorgio [3]) was “bacteriostatic (considered bacteriostatic if the inoculum was reduced by 0–3 log CFU/mL)”. The MIC90 (S. pneumoniae; 27 clinical isolates) was 4 µg/mL (≈ 11.9 µM), the MIC90 (S. pneumoniae; Streptococcus pneumoniae, 27 S. pneumoniae isolates, read-out: MIC90) was 4 µg/mL (≈ 11.9 µM) and the MIC50 (S. pneumoniae; Streptococcus pneumoniae, 27 clinical isolates, read-out: MIC50) was 2 µg/mL (≈ 5.93 µM). It also gave an MIC50 ([4]; read-out: MIC50) of 2 µg/mL (≈ 5.93 µM), an MIC90 ([4]; read-out: MIC90) of 4 µg/mL (≈ 11.9 µM) and an MIC (S. aureus Giorgio [5]) of 2 µg/mL (≈ 5.93 µM). For the same compound, the “bound to plasma proteins” value [6] was 18%, the time-kill activity (MRSA CCARM 3167 [7]) was “bacteriostatic (considered bacteriostatic if the inoculum was reduced by 0–3 log CFU/mL)” and the MIC (S. pneumoniae ATCC49619 [8]) was 2 µg/mL (≈ 5.93 µM). It also gave an MIC50 ([9]; read-out: MIC50) of 2 µg/mL (≈ 5.93 µM), an MIC90 ([9]; read-out: MIC90) of 4 µg/mL (≈ 11.9 µM) and an MIC50 (MSSA; read-out: MIC50) of 2 µg/mL (≈ 5.93 µM). For the same compound, the MIC90 (MSSA; read-out: MIC90) was 2 µg/mL (≈ 5.93 µM), the MIC (MRSA CCARM 3167 [10]) was 1 µg/mL (≈ 2.96 µM) and the MIC50 (MRSA; read-out: MIC50) was 2 µg/mL (≈ 5.93 µM). The MIC90 (MRSA; read-out: MIC90) was 4 µg/mL (≈ 11.9 µM), the time-kill activity (S. pneumoniae ATCC49619 [11]) was “bacteriostatic (considered bacteriostatic if the inoculum was reduced by 0–3 log CFU/mL)” and the time-kill activity (VRE 3 [12]) was “bacteriostatic (considered bacteriostatic if the inoculum was reduced by 0–3 log CFU/mL)”. It also gave an MIC (VRE 3 [13]) of 2 µg/mL (≈ 5.93 µM).
